Where two headings read alike, the source gives them in different places.
Experiments:
TRPV3 = target: T1, TRPV3 (Homo sapiens, UniProt Q8NET8); assay: Whole-cell patch-clamp recordings of TRPV3 currents in transfected HEK293T cells; type: cell-based; conditions: for IC50: ± 80 mV
T1 construct: YFP or GFP; expressed in transfected cells; host or cells: HEK293T
T1 sequence (Q8NET8 1-790): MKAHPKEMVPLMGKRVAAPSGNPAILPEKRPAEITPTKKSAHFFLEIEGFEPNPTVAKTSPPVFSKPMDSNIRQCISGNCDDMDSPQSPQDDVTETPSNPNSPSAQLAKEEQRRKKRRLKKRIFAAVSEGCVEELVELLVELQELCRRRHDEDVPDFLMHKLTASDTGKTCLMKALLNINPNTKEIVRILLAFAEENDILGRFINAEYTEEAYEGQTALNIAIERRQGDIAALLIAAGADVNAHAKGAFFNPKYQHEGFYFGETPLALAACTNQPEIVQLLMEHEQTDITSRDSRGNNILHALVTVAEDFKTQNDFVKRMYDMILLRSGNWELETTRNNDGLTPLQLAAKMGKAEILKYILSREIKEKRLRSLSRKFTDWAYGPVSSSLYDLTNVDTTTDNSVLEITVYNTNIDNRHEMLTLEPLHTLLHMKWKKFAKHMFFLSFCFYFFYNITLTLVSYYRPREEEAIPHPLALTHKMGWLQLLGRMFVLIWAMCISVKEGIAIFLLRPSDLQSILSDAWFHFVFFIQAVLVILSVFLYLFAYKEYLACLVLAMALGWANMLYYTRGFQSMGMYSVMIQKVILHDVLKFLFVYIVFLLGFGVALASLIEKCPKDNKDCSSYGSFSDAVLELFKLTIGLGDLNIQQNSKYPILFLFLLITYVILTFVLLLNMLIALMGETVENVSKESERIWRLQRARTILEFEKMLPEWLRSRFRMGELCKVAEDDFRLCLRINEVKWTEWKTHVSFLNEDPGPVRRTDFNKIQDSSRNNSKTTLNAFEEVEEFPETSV
Procedure: HEK293T cells are cultured using Dulbecco's modified Eagle's medium containing 10% fetal bovine serum and 1% penicillin-streptomycin in a cell incubator with 5% CO2 at 37 °C. Plasmids of murine TRPV1, TRPV4, TRPM8, and human TRPV3, TRPA1 are labeled with YFP or GFP as indicators for subsequent electrophysiological recordings. Complementary DNA constructs of ion channels were transiently transfected with Lipofectamine 3000 (Invitrogen). And 12 to 18 h after transient transfection, electrophysiological recordings were performed.
Patch-clamp recordings were carried out with a HEKA EPC10 amplifier controlled by PatchMaster software (HEKA; https://www.heka.com/products/products_main.html#soft_pm) ([36]). Patch pipettes were prepared from borosilicate glass and fire-polished to the resistance of 3 to 8 MΩ by P-97 puller for whole-cell recordings. For single-channel recordings, patch pipettes were fire-polished to a higher resistance of 6 to 10 MΩ. Both bath solution and pipette solution contained 130 mM NaCl, 10 mM glucose, 0.2 mM EDTA, and 3 mM Hepes and were adjusted to pH 7.2 to 7.4 with NaOH. Whole-cell recordings and single-channel recordings were performed at ± 80 mV. The current was sampled at 10 kHz and filtered at 2.9 kHz. All recordings were performed at room temperature (25 °C). A gravity-driven system (RSC-200, Bio-Logic) with freely rotated perfusion tubes was used for the perfusion of ligands. Bath and ligand solutions were delivered through separate tubes to minimize the mixing of solutions. Patch pipette holding cells were placed in front of the perfusion tube outlet for perfusion.
All data from whole-cell recordings were analyzed in Igor Pro (WaveMetrics). IC50 values were determined by fitting the Hill equation to concentration-response relationships. Data are shown as mean ± SEM. Statistical significance between two groups was conducted with an unpaired two-tailed t test, and statistical significance among multiple groups was conducted with one-way ANOVA using Dunnett’s multiple comparisons test or Tukey's post hoc test. Differences were regarded as statistically significant with ∗, p < 0.05; ∗∗, p < 0.01; ∗∗∗, p < 0.001; ∗∗∗∗, and p < 0.0001; N.S., no significance.

[1] = system: TNF-α, IL-6, IgE, IL-4 in mouse dorsal skin tissues; assay: Carvacrol-induced AD-like mouse model: inflammatory factors by ELISA; type: in vivo
Procedure: We therefore generated a carvacrol-induced AD mouse model to test the effect of HCQ.
To generate an AD-like mice model, 2% carvacrol (dissolved in 30% ethanol solution) was topically smeared onto the mice dorsum 1 day after hair removal with a depilatory cream (Vetin Depilatory Cream). Mice received a topical administration of an equal volume (200 μl) of 2% carvacrol or in the presence of 2 mg/ml HCQ. […] After the application of carvacrol for 5 days, the external appearance of mice was photographed and then sampled. The external appearance was graded based on three aspects: thickness, erythema/bleeding, and dryness/desquamation, with severity assessed on a score of 0 to 4. The degree of thickness was measured by the thickness of the skin in H&E staining. Skin tissues were either fixed in 4% paraformaldehyde or placed in PBS buffer containing 1% protease inhibitor, facilitating subsequent steps of paraffin embedding or ELISA experiments.
Animal skin tissues were placed in PBS buffer containing 1% protease inhibitors, then homogenized, and centrifuged for supernatants. Cytokine concentrations of supernatants (IL-4, IL-6, TNF-α, and IgE) were measured using ELISA kits (Tsingke) according to the manufacturer's instructions. The absorption at 450 nm was measured by a microplate reader (Thermo Multiskan MK3).

[2] = mouse tissues, HCQ 2 mg/ml topical with 2% carvacrol, 5 days

IC50 (TRPV3; HEK293T cells expressing TRPV3, whole-cell, 1 mM 2-APB, read-out: IC50, inhibition of TRPV3 currents induced by 1 mM 2-APB): 51.7 ± 4.78 µM
inhibition at 100 µM (TRPV3; HEK-293T, 100 μM HCQ, 1 mM 2-APB, read-out: inhibition of WT TRPV3 channels): 75.6%
IC50 (TRPV3; whole-cell, 1 mM carvacrol, read-out: IC50, inhibition of TRPV3 current induced by carvacrol): 1.07 ± 0.38 µM
SMILES: CCN(CCO)CCCC(C)Nc1ccnc2cc(Cl)ccc12 (stereo not shown) [HCQ, hydroxychloroquine]
suppression of serum IgE levels ([1]; HCQ 2 mg/ml topical with 2% carvacrol, 5 days): 60.22 ± 11.26%
IL-4 levels compared to the model group ([1]; mouse tissues, HCQ 2 mg/ml or DXM 1 mg/ml topical with 2% carvacrol): no significant difference
inhibition of release of carvacrol-induced IL-6 [1, 2]: 77.09% ± 5.38%
inhibition of release of carvacrol-induced TNF-α [1, 2]: 88.10% ± 4.12%
